Results reported in US12251417B2, “Antimicrobial compounds from the genus Delftia” (Ministry of Health, State of Israel, priority 2017, dated 2025).
In brackets after ≈: the same amount, converted by molar mass. Square brackets hold non-standard residues; d marks the D form. Peptide text beside a SMILES is read from it. * marks the point of attachment. ξ: configuration not given here. NH(1-OH-2-oxopiperidin-3-yl) = O=C1C(N*)CCCN1O; ξOrn(N(OH)CHO) = NC(CCCN(O)C=O)C(=O)O; ξAsp(3ξ-OH) = NC(C(=O)O)C(O)C(=O)O; X1 = CC(N)C(O)C(C)C(=O)*; Dhb = C/C=C(\N)C(=O)O

Legend:
[1] = test system: vancomycin resistant enterococci (VRE); experiment: Inhibition of VRE by Delftibactin A alone and with antibiotics; assay type: cell-based
Text: FIG. 33 is a graph illustrating that Delftibactin A inhibits Vancomycin Resistant Enterococci (VRE).

THLE2 = experiment: MTT cytotoxicity assay; assay type: cell-based, human; conditions: 24/72 hours
Text: (§1) MTT (3-(4,5-Dimethylthiazol-2-yl)-2,5-diphenyltetrazolium bromide) is a colorimetric assay for measuring the activity of cellular enzymes that reduce the tetrazolium dye, MTT, to its insoluble formazan, giving a purple color. This assay measure mitochondrial metabolic activity via NAD(P)Hdependent cellular oxidoreductase enzymes and may, under defined conditions, reflect the number of viable cells. The cells used in this study were: Hep G2 (HB-8065) is a perpetual cell line which was derived from the liver tissue of a person with a well-differentiated hepatocellular carcinoma. THLE-2 is a perpetual cell line which was derived from the liver epithelial cells of an adult human transformed with SV40 large T antigen.
(§2) The assay: cell concentration treatment 24 hours: Cells were seeded at a concentration of 2×10^4 cells/well in 200 μl culture medium and incubated at 37° C. in 5% CO2. Cell concentration treatment 72 hours: Cells were seeded at a concentration of 1×10^4 cells/well in 200 μl culture medium and incubated at 37° C. in 5% CO2. After 24 hours, the medium was replaced with a final volume of 200 μl and 1 μl of compound (dilution 1/200) and controls were added to the plates. […]
(§3) When extracts/compounds and controls were added, plates were incubated at 37° C. in 5% CO2 incubator for 24/72 hours. […] The absorbance was measured using a multireader Victor™ at a wavelength of 570 nm.

HepG2 = experiment: MTT cytotoxicity assay; assay type: cell-based, human; conditions: 24/72 hours
Text: as §1, §2, §3

Deftia strain 2189 = experiment: Delftibactin A as carrier of gallium; assay type: cell-based, Delftia; conditions: with gallium
Text: FIG. 36 is a graph illustrating that Delftibactin A can be used as a carrier of inhibitory antimicrobial agents such as gallium to inhibit harmful bacterial strains such as Deftia strain 2189.

C. albicans ATCC64124 = experiment: Broth microdilution MIC; assay type: cell-based; conditions: lowest concentration that inhibited ≥50% of growth after overnight incubation
Description: Deftibactin A was serially diluted in DMSO with a dilution factor of 2, to provide 10 concentrations for all the assays. The MIC is defined as the lowest concentration of compound that inhibited ≥90% or ≥50% of the growth of a microorganism after overnight incubation. Genedata Screener software (Genedata, Inc., Basel, Switzerland) was used to analyze the data and to determine the MICs and calculate the RZ′ factor, to estimate the robustness of the assays. Delftibactin A was tested on two different days and in triplicate.
Broth microdilution was used to determine the minimal inhibitory concentration (MIC) according to the standards of the Clinical and Laboratory Standards Institute (CLSI) or the European Committee on Antimicrobial Susceptibility Testing (EUCAST). Cation-adjusted Mueller-Hinton broth (CAMHB) was used with inoculum of about 5×10^5 cfu ml^−1 of the tested pathogen. Direct suspension of overnight colonies into CAMHB was used for the generation of the bacterial suspension. The tested inhibited compound or supernatant was used in doubling dilutions in 50 μl of CAMHB and inoculated with an equal amount of bacteria in the broth.

SMILES: C/C=C(\NC(=O)CNC(=O)C(NC(=O)C(NC(=O)C(C)C(O)C(C)N)C(O)C(=O)O)C(C)O)C(=O)NC(CCCN(O)C=O)C(=O)NC(CO)C(=O)NC(CCCN=C(N)N)C(=O)NC1CCCN(O)C1=O (stereo not shown) [Delftibactin A] (X1-[ξAsp(3ξ-OH)]TG[Dhb][ξOrn(N(OH)CHO)]SR-{NH(1-OH-2-oxopiperidin-3-yl)}; configuration not given here)
- inhibition of vancomycin resistant enterococci (VRE) [1]: inhibits
- combined antimicrobial effect with clarithromycin on VRE ([1]; Delftibactin A 10 μM): additive combined antimicrobial effect
- combined antimicrobial effect with rifampicin on VRE ([1]; Delftibactin A 10 μM): additive combined antimicrobial effect
- cytotoxic activity (MTT) (THLE2): not have cytotoxic activity
- cytotoxic activity (MTT) (HepG2): not have cytotoxic activity
- inhibition of Deftia strain 2189 as carrier of gallium (Deftia strain 2189): inhibit
- MIC50 (C. albicans ATCC64124): 16 µg/mL (≈ 15.5 µM)
